Patent US12178867B2, “MHC class i associated peptides for prevention and treatment of multiple flavi virus” (priority 2018, dated 2024)

What was measured:
[1] = system: peptide loaded T2 cells; test: CTL assay: peptide-stimulated PBMCs of naive HLA-A2+ donor co-cultured with peptide loaded T2 cells, flow cytometry (FIG. 3A); assay type: cell-based, human
Procedure: FIGS. 3A and 3B: (FIG. 3A) Utilizing a healthy (naive) human HLA-A2+ donor, peripheral blood mononuclear cells (PBMCs) were stimulated with peptide epitopes in a cytokine cocktail to induce antigen specific CTL response. These stimulated PBMCs were then assayed by co-culturing peptide loaded targets for antigen specific response. TAP-deficient cells (T2) were used for peptide loading, and blank T2 cells used as control. Expanded PBMCs were assayed for both CD107a degranulation and interferon gamma (IFN-g) markers by flow cytometry. All 6 peptide epitopes induced CD8+ CD107a and IFNg expression to peptide loaded T2 cells in a peptide specific manner. […] (FIG. 3B) Utilizing a healthy (naive) human HLA-A2+ donor, peripheral blood mononuclear cells (PBMCs) were stimulated with peptide epitopes in a cytokine cocktail to induce antigen specific CTL response. These stimulated PBMCs were then assayed by co-culturing with Hep2G infected cells (DV2/Zika). Uninfected HepG2 cells were used as control. Expanded PBMCs were assayed for both CD107a degranulation and interferon gamma (IFN-g) markers by flow cytometry.
In one experiment, utilizing a healthy (naive) human HLA-A2+ donor, peripheral blood mononuclear cells (PBMCs) were stimulated with peptide epitopes in a cytokine cocktail to induce antigen specific CTL response. […]

[2] = system: peptide loaded HepG2 cells; test: CTL assay: peptide-stimulated PBMCs of naive HLA-A24+ donor co-cultured with peptide loaded HepG2 cells, flow cytometry (FIG. 4); assay type: cell-based, human; conditions: blank HepG2 cells as control
Procedure: FIG. 4: Utilizing a healthy (naive) human HLA-A24+ donor, peripheral blood mononuclear cells (PBMCs) were stimulated with peptide epitopes in a cytokine cocktail to induce antigen specific CTL response. These stimulated PBMCs were then assayed by co-culturing peptide loaded targets for antigen specific response. Hep2G cells were used for peptide loading, and blank Hep2G cells used as control. Also used was HepG2 cells infected with Dengue (DV2) and Zika. Expanded PBMCs were assayed for both CD8/IFNg double expression by flow cytometry. All 4 peptide epitopes induced CD8+ IFNg expression to peptide loaded HepG2 cells in a peptide specific manner. […] FIG. 5: Transgenic A2 mice were immunized with 200 ng of NP-Dengue peptides. The spleen cells were isolated and then exposed to either Zika or Dengue infected cells. […] Acid stripping of the peptides makes the cells non-response.
In a further experiment, utilizing a healthy (naive) human HLA-A24+ donor, peripheral blood mononuclear cells (PBMCs) were stimulated with peptide epitopes in a cytokine cocktail to induce antigen specific CTL response. These stimulated PBMCs were then assayed by co-culturing peptide loaded targets for antigen specific response (FIG. 4). Hep2G cells were used for peptide loading, and blank Hep2G cells used as control. Also used was HepG2 cells infected with Dengue (DV2) and Zika. […]

“PMAAVGLLIVS (listed as Dengue virus) [SEQ ID NO: 2]” was tested, and the “IFNg+ effect” value [1] was “particular pronounced IFNg+ effect” and the “CD8+ IFNg expression to peptide loaded HepG2 cells” value [2] was “particular pronounced IFNg+ effect”.
